In US20240145091A1, “METHOD FOR MODULATING THE AMOUNT OF VIRUS, METHOD FOR TREATING OR […] […], METHOD FOR […] AMOUNT OF VIRUS, AND METHOD FOR PREDICTING THE PROGNOSIS OF VIRUS INFECTION DISEASE IN SUBJECT, AS WELL AS COMPOSITION AND SYSTEM FOR THE SAME” (National Institutes of Biomedical Innovation, Health and …, priority 2022, published 2024):

Assays:
[1] = system: H1N1 influenza A/Puerto Rico/8/34 (PR8 influenza virus strain); assay: Viral plaque quantification assay of lung tissue in influenza model mice; format: in vivo, C57BL6 mice; details: FIG. 3A; day 5 after D-Ala administration; IAV+D-Ala vs IAV group, n=3 to 7
Excerpt: (§1) FIG. 1 is a schematic diagram showing the experimental protocol for D-AA administration (+D-AA) to IAV and Mock in Example 1. C57BL6 mice (SLC, Tokyo, Japan) raised in a specific pathogen control facility were used. In order to increase the amount of virus in the mice in a short period of time, […] water containing 50 times the TCID50 (median tissue culture infectious dose, 50% infectious dose) of H1N1 influenza A/Puerto Rico/8/34 (PR8 influenza virus strain (ATCC, Manassas, USA) was administered intranasally to anesthetized 4-week-old individuals to infect them. After infection, individuals in each group were weighed and blood samples were collected on a predetermined schedule, and plasma chiral amino acids (D-amino acids and L-amino acids) were quantitatively analyzed by 2D-HPLC.
FIG. 3A is a graph showing the results of the viral plaque quantification assay of lung tissue on day 5 after D-Ala administration in the Mock, IAV, and IAV+D-Ala groups (n=3 to 7) in Example 1.

SARS-CoV-2 = assay: COVID-19 model mice study: body weight and survival after D-Ala administration; format: in vivo, CAG-hACE2 mice
Description: FIG. 10 is a schematic diagram of the experimental protocol using coronavirus-infected mice in Example 2. CAG-hACE2 mice susceptible to SARS-CoV-2, which were developed at the National Institute of Biomedical Innovation, Health and Nutrition, were used. 2×10^2 to 10^4 of TCID50 of SARS-CoV-2 was administered to anesthetized 8—to 12-week-old individuals for bronchial infection to create a mouse model of coronavirus infection (Non-Patent Literature 9).
FIG. 12 is a schematic diagram of the experimental schedule of D-Ala administration to coronavirus-infected mice in Example 2. 8—to 12-week-old male and female CAG-hACE2 mice were subjected to intraperitoneal administration with a predetermined dose of D-Ala twice daily, which was stared from 2 days prior to the experiment. The mice were then infected with SARS-CoV-2 via the respiratory tract.

[2] = system: H1N1 influenza A/Puerto Rico/8/34 (PR8 influenza virus strain); assay: Influenza model mice study: body weight and survival after D-amino acid administration; format: in vivo, C57BL6 mice
Excerpt: as §1

[3] = FIG. 8, IAV (Vehicle), IAV+D-Ser, IAV+D-Ala groups
[4] = FIG. 9, IAV (Vehicle), IAV+D-Ser, IAV+D-Ala groups

SMILES	amount of virus, viral plaque quantification assay of lung tissue [1]	survival curves, Kaplan-Meier analysis with death as the endpoint (SARS-CoV-2; FIG. 14, SCV (Vehicle) vs SCV+D-Ala)	rates of change in body weights over time (SARS-CoV-2; FIG. 17, SCV (Vehicle) vs SCV+D-Ala)	survival curves, Kaplan-Meier analysis with weight loss and death as composite endpoints (SARS-CoV-2; FIG. 18, SCV (Vehicle) vs SCV+D-Ala)	survival curves by blood D-Ala level, Kaplan-Meier analysis with death as the endpoint (SARS-CoV-2; FIG. 19, SCV+D-Ala group split into high (>4.72 μM) and low (<4.72 μM) BD-Ala)	rates of change in body weight ([2]; FIG. 2, IAV+D-Ala vs IAV group, n=3-10, *P<0.05)	survival curves, Kaplan-Meier analysis with death as the endpoint ([2]; FIG. 4, Mock, Mock+D-Ala, IAV, IAV+D-Ala groups, n=3-10)	survival curves, Kaplan-Meier analysis with death as the endpoint [2, 3]	rates of change in body weight [2, 4]
C[C@@H](N)C(=O)O [D-Ala, D-alanine]	increase in the amount of virus in the IAV+D-Ala group was suppressed	suppressed the mortality	smaller rate of decrease in body weights	suppressed the weight loss and the mortality	better prognosis	rates of weight loss were suppressed	suppressed the mortality rate	suppressed the mortality	rates of weight loss were suppressed
N[C@H](CO)C(=O)O [D-Ser, D-serine]	–	–	–	–	–	–	–	suppressed the mortality	rates of weight loss were suppressed
